Test results published in US20210000782A1, “APPLICATION OF DROFENINE OR SALT THEREOF TO PREPARATION OF MEDICINE FOR TREATING PERIPHERAL NEURON AXONAL INJURY AND PERIPHERAL RELATED NEUROPATHY” (NANJING UNIVERSITY OF CHINESE MEDICINE, priority 2018, published 2021).

Legend:
[1] = system: db/db type II diabetic mice; experiment: Heat pain testing experiment, type II diabetic peripheral neuropathy; type: in vivo; conditions: n = 6
Method: (§1) 2) Animal grouped administration condition (type II diabetic mice): 16-week-old db/db mice were selected and subjected to adaptive feeding for a week. Grouping was performed according to body weights and blood glucose to obtain a control group, a model group, a drofenine low-dose group (10 mg/kg), and a drofenine medium-dose group (20 mg/kg). Before administration, the motor nerve conduction velocity and a 50% mechanical pain threshold were measured to determine DPN symptoms. Intraperitoneal injection of drofenine was performed for 4 weeks. The mechanical pain, heat pain and motor nerve conduction velocity were tested in each week.
(§2) 2) Von Frey tactile measuring suits were purchased from a company, and a plantar test instrument was purchased from UGO company.
(§3) 4) Heat pain testing experiment: An infrared instrument was placed under the sole of the mouse, and kept still. The time was recorded when the paw of the mouse withdrew. This time was heat pain response time of the mouse.

[2] = system: DRG primary cells (peripheral sensory neurons); experiment: Growth of peripheral sensory neurites, β-tubulin III fluorescent staining; type: cell-based, C57BL6 mouse; conditions: 24 hours incubation with different concentrations of drofenine, FIG. 1 and FIG. 2
Method: The experiment was based on that DPN firstly leads to abnormality of sensory neurons, and the main pathological changes were axonal atrophy and degeneration, or even disappearance. For DRG, as peripheral sensory neurons, its neurite growth state is closely related to a development process of the DPN. The inventor of the present invention added DMSO and different concentrations of drofenine into DRG primary cells for common incubation for a certain time. Then, the growth of the neurites was determined by a β-tubulin III fluorescent staining detection method, and lengths were quantified by ImageJ. The effect of the drofenine on promoting the growth of the peripheral sensory neurites was evaluated on the basis.
1) β-tubulin III for fluorescent staining was purchased from Sigma company. All cell culture reagents were purchased from Gibco company. DRG cells were taken from C57BL6 mouse spines.
2) β-tubulin III staining experiment: DRG cells were inoculated in a 12-hole plate at 100 cells/hole. After the DRG cells were attached to a wall overnight, incubation was performed for 24 hours by different concentrations of drofenine. Then, an original culture medium is removed. 4% of paraformaldehyde was added into each hole for immobilization for 15 min. Permeabilization was performed for 5 min by 0.3% Triton. After PBS washing, room-temperature sealing was performed for 1 h. […]

[3] = system: STZ-induced type I diabetic mice; experiment: Heat pain testing experiment, type I diabetic peripheral neuropathy; type: in vivo, C57BL/6J mice; conditions: n = 6
Method: (§4) 1) Animal grouped administration condition (type I diabetic mice): C57BL/6J mice were purchased from Beijing Vital River. After adaptive feeding for a week, intraperitoneal injection of STZ (180 mg/kg) was performed. Blood glucose was measured after 4-7 days. Mice with the blood glucose higher than 16 mmol/L were randomly selected. After 6 weeks after the STZ injection, grouping was performed according to body weights and the blood glucose to obtain a control group (non-diabetic mice), a model group (DPN mice), drofenine (10 mg/kg), and drofenine (20 mg/kg). Intraperitoneal injection of drofenine was performed for 4 weeks. The motor nerve conduction velocity, mechanical pain and heat pain were respectively tested in 0th week, 4th week and 8th week after the STZ injection.
as §2, §3

[4] = system: STZ-induced type I diabetic mice; experiment: Motor nerve conduction velocity, type I diabetic peripheral neuropathy; type: in vivo, C57BL/6J mice; conditions: for Motor nerve conduction velocity: STZ mice, n = 6
Method: as §4
(§5) 5) Motor nerve conduction velocity testing experiment: (1) Electrode placement: A stimulation electrode was placed at a nerve trunk, a recording electrode was placed at a muscle belly, a reference electrode was placed at a muscle tendon, and a ground wire was placed between the stimulation electrode and the recording electrode. (2) Motor nerve conduction velocity calculation: Super-strong stimulation was performed on distal and proximal ends of the nerve trunk, 2 compound muscle action potentials might be recorded on muscles dominated by this nerve, and different latency periods thereof were measured. The nerve conduction velocity was obtained by dividing a distance between the distal and proximal ends by a latency period difference between two points. A calculation formula was: Nerve conduction velocity (m/s)=distance between two points (cm)×10/latency period difference between two points.

[5] = system: STZ-induced type I diabetic mice; experiment: Paw withdrawal experiment (Von Frey, 50% mechanical pain threshold), type I diabetic peripheral neuropathy; type: in vivo, C57BL/6J mice; conditions: n = 6
Method: (§6) The experiment was based on that when rodents received a mechanical stimulation at their paws, they generated withdrawal reflex. A Von Frey may provide stimulation force in a range of 0.008 g to 300 g. A magnitude of the stimulation force was determined by a thickness and an extending length of a nylon wire. The nylon wire with a proper thickness was selected according to practical conditions in the experiment. The proper extending length was regulated to realize vertical stimulation on the skin. The magnitude of the stimulation force might be regulated by regulating the extending length and changing the nylon wire until the nylon wire bended. The response of mice on the pain was evaluated on the basis.
as §4, §2
(§7) 3) Paw withdrawal Experiment: A nylon wire with a proper thickness was selected. A proper extending length was regulated to realize vertical simulation on the skin. The magnitude of stimulation force might be regulated by regulating the extending length and changing the nylon wire until the nylon wire bended. Each mouse was tested for six times to determine a threshold. A 50% mechanical pain threshold of the mice was calculated according to 50% threshold=(10^ (x^f+kδ))/10000.

[6] = system: db/db type II diabetic mice; experiment: Paw withdrawal experiment (Von Frey, 50% mechanical pain threshold), type II diabetic peripheral neuropathy; type: in vivo; conditions: n = 6
Method: as §6, §1, §2, §7

[7] = system: db/db type II diabetic mice; experiment: Motor nerve conduction velocity, type II diabetic peripheral neuropathy; type: in vivo; conditions: for Motor nerve conduction velocity: db/db mice, n = 6
Method: as §1, §5

BChE = BChE (Homo sapiens, UniProt P06276); conditions: background statement; cited from earlier work
Chain of BChE (P06276 29-602, species assumed): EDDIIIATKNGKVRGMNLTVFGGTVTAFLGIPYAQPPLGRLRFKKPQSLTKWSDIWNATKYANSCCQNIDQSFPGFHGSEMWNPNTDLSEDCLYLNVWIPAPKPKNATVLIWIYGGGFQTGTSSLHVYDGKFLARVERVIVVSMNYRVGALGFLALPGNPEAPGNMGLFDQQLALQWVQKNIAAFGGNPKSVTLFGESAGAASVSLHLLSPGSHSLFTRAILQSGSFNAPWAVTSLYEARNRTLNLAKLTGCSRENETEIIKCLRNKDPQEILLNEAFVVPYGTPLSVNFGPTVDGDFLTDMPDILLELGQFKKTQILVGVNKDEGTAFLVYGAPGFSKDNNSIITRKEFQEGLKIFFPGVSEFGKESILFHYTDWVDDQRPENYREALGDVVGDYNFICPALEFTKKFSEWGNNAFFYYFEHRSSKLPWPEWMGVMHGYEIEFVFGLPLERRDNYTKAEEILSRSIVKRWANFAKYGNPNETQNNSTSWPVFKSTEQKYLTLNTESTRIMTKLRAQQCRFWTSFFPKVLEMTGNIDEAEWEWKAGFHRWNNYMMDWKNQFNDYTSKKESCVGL

[8] = 10 mg/kg intraperitoneal, administration week 0, mean ± SEM
[9] = 10 mg/kg intraperitoneal, administration week 1, mean ± SEM
[10] = 10 mg/kg intraperitoneal, administration week 2, mean ± SEM
[11] = 10 mg/kg intraperitoneal, administration week 3, mean ± SEM
[12] = 10 mg/kg intraperitoneal, administration week 4, mean ± SEM
[13] = 20 mg/kg intraperitoneal, administration week 0, mean ± SEM
[14] = 20 mg/kg intraperitoneal, administration week 1, mean ± SEM
[15] = 20 mg/kg intraperitoneal, administration week 2, mean ± SEM
[16] = 20 mg/kg intraperitoneal, administration week 3, mean ± SEM
[17] = 20 mg/kg intraperitoneal, administration week 4, mean ± SEM

`CCN(CC)CCOC(=O)C(c1ccccc1)C1CCCCC1` (stereo not shown) [Drofenine] showed a Heat response [1, 8] of 10.43 ± 0.98 s, a Heat response [1, 9] of 13.52 ± 0.69 s and a Heat response [1, 10] of 10.58 ± 0.32 s. It also gave a Heat response [1, 11] of 8.96 ± 0.56 s, a Heat response [1, 12] of 9.78 ± 0.56 s and a Heat response [1, 13] of 10.39 ± 0.30 s. For the same compound, the Heat response [1, 14] was 10.77 ± 0.54 s, the Heat response [1, 15] was 8.54 ± 0.79 s and the Heat response [1, 16] was 8.51 ± 0.55 s. The Heat response [1, 17] was 8.01 ± 0.68 s, the “growth of the peripheral sensory neurites” value [2] was “promote the growth (quantitative diagram) of the peripheral sensory neurites in a concentration dependent way” and the Heat response [3, 8] was 11.43 ± 0.98 s. It also gave a Heat response [3, 9] of 11.12 ± 0.66 s, a Heat response [3, 10] of 10.28 ± 0.68 s and a Heat response [3, 11] of 8.96 ± 0.26 s. It also gave a Heat response [3, 12] of 8.78 ± 0.26 s, a Heat response [3, 13] of 10.3 ± 0.60 s and a Heat response [3, 14] of 10.77 ± 0.94 s. The Heat response [3, 15] was 8.64 ± 0.69 s, the Heat response [3, 16] was 7.91 ± 0.54 s and the Heat response [3, 17] was 7.71 ± 0.68 s. The “Motor nerve conduction velocity” value [4, 8] was 39.61 ± 1.06 m/s, the “Motor nerve conduction velocity” value [4, 10] was 40.55 ± 2.14 m/s and the “Motor nerve conduction velocity” value [4, 13] was 40.63 ± 1.03 m/s. For the same compound, the “Motor nerve conduction velocity” value [4, 15] was 43.82 ± 1.37 m/s, the “motor nerve conduction velocity and sensation loss of the type I diabetic peripheral neuropathy” value ([4]; summary in words of Tables 1-3, STZ mice) was “significantly relieve” and the “50% paw withdrawal threshold” value [5, 8] was 2.77 ± 0.19 g. For the same compound, the “50% paw withdrawal threshold” value [5, 9] was 2.53 ± 0.25 g, the “50% paw withdrawal threshold” value [5, 10] was 1.31 ± 0.13 g and the “50% paw withdrawal threshold” value [5, 11] was 1.40 ± 0.13 g. The “50% paw withdrawal threshold” value [5, 12] was 1.45 ± 0.11 g, the “50% paw withdrawal threshold” value [5, 13] was 2.77 ± 0.19 g and the “50% paw withdrawal threshold” value [5, 14] was 2.06 ± 0.31 g. The “50% paw withdrawal threshold” value [5, 15] was 1.31 ± 0.13 g, the “50% paw withdrawal threshold” value [5, 16] was 1.27 ± 0.12 g and the “50% paw withdrawal threshold” value [5, 17] was 1.35 ± 0.10 g. For the same compound, the “50% paw withdrawal threshold” value [6, 8] was 2.81 ± 0.17 g, the “50% paw withdrawal threshold” value [6, 9] was 2.82 ± 0.22 g and the “50% paw withdrawal threshold” value [6, 10] was 2.21 ± 0.13 g. The “50% paw withdrawal threshold” value [6, 11] was 2.09 ± 0.34 g, the “50% paw withdrawal threshold” value [6, 12] was 1.98 ± 0.21 g and the “50% paw withdrawal threshold” value [6, 13] was 2.83 ± 0.19 g. The “50% paw withdrawal threshold” value [6, 14] was 2.62 ± 0.26 g, the “50% paw withdrawal threshold” value [6, 15] was 2.01 ± 0.13 g and the “50% paw withdrawal threshold” value [6, 16] was 1.92 ± 0.12 g. For the same compound, the “50% paw withdrawal threshold” value [6, 17] was 1.82 ± 0.01 g, the “Motor nerve conduction velocity” value [7, 8] was 34.61 ± 1.06 m/s and the “Motor nerve conduction velocity” value [7, 9] was 36.55 ± 2.14 m/s. For the same compound, the “Motor nerve conduction velocity” value [7, 10] was 38.23 ± 3.20 m/s, the “Motor nerve conduction velocity” value [7, 11] was 39.34 ± 2.89 m/s and the “Motor nerve conduction velocity” value [7, 12] was 40.12 ± 2.87 m/s. The “Motor nerve conduction velocity” value [7, 13] was 35.63 ± 1.03 m/s, the “Motor nerve conduction velocity” value [7, 14] was 38.82 ± 1.37 m/s and the “Motor nerve conduction velocity” value [7, 15] was 40.23 ± 2.02 m/s. The “Motor nerve conduction velocity” value [7, 16] was 41.56 ± 2.35 m/s, the “Motor nerve conduction velocity” value [7, 17] was 42.28 ± 2.26 m/s and the “motor nerve conduction velocity and sensation loss of db/db type II diabetic peripheral neuropathy” value ([7]; summary in words of Tables 4-6, db/db mice) was “significantly relieve”. For the same compound, the BChE inhibition (BChE) was “effective BChE competitive inhibitor”.
